Test system: reuptake of all three monoamines
Experiment: monoamine reuptake inhibition profile (summary in words of Table 1)
Format: biochemical, rat
Conditions: with reference to Table 1, sibutramine through its pharmacologically active metabolites

## CC(C)CC(N(C)C)C1(c2ccc(Cl)cc2)CCC1 (stereo not shown) [Sibutramine, N,N-dimethyl-1-[1-(4-chlorophenyl)cyclobutyl]-3-methylbutylamine]
  inhibition of monoamine reuptake / selectivity profile: inhibits the reuptake of all three monoamines
